Assays:
[1] = molecular target: Beta Secretase enzyme (BACE) (Homo sapiens, UniProt P56817); assay: In vitro enzymatic BACE FRET (fluorescence resonance energy transfer) assay; assay type: biochemical; conditions: average IC50, enzyme assay; read-out: BACE 1 FRET assay
How it was run: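 Acetate buffer (0.05 M, pH 4.2), 10% DMSO final, 100 uM nonionic detergent genapol. Substrate addition (50 nM FRET peptide) initiates; one-hour incubation; Tris raises pH to neutrality before fluorescence measurement.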

[2] = system: Aβ40 in conditioned medium of cells stably expressing Amyloid Precursor Protein (APP); assay: In vitro BACE cell-based assay (Aβ40 in conditioned medium, sandwich ELISA); conditions: Homo sapiens, HEK293, average IC50; read-out: HEK cell assay
How it was run: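 The sandwich ELISA pairs pAb40 capture (3 h, 4 °C) with 6E10 detection (2 h, 4 °C) and a streptavidin-europium TRF read-out. Supernatants come from APP-expressing cells grown in 10% FBS DMEM.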

Chain of Beta Secretase enzyme (BACE) (P56817 46-501, species assumed): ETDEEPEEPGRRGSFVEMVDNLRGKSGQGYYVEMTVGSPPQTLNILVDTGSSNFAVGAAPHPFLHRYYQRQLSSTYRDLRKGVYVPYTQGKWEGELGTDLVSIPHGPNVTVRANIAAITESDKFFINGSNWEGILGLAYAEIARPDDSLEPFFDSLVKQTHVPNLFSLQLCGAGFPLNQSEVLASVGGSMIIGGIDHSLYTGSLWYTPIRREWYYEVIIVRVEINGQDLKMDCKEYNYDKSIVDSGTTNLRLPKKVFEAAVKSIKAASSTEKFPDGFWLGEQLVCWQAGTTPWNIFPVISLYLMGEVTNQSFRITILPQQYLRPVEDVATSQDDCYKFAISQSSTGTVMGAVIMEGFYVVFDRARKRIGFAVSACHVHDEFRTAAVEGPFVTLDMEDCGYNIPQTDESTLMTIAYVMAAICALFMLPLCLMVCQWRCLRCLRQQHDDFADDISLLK

COc1ncc(-c2cc(F)c3c(c2)[C@]2(COC(N)=N2)c2cc(-c4cncc(F)c4)ccc2O3)cn1 [Example 293, (4S)-4′-fluoro-7′-(5-fluoro-3-pyridinyl)-2′-(2-methoxy-5-pyrimidinyl)spiro[1,3-oxazole-4,9′-xanthen]-2-amine]
IC50 [1]: 0.0075 µM | IC50 [2]: 0.0825 µM

CC1(COc2cc(F)c3c(c2)[C@]2(COC(N)=N2)c2cc(-c4cccnc4)c(F)cc2O3)COC1 [Example 294, (4S)-3′,5′-difluoro-7′-((3-methyl-3-oxetanyl)methoxy)-2′-(3-pyridinyl)spiro[1,3-oxazole-4,9′-xanthen]-2-amine]
IC50 [1]: 0.0611 µM | IC50 [2]: 0.612 µM

NC1=N[C@@]2(CO1)c1cc(-c3ccc(F)nc3)ccc1Oc1c(F)cc(C3CCOCC3)cc12 [Example 301, (4S)-4′-fluoro-7′-(6-fluoro-3-pyridinyl)-2′-(tetrahydro-2H-pyran-4-yl)spiro[1,3-oxazole-4,9′-xanthen]-2-amine]
IC50 [1]: 0.0048 µM | IC50 [2]: 0.0159 µM

NC1=N[C@@]2(CO1)c1cc(-c3ccc(F)nc3)ccc1Oc1c(F)cc(N3C[C@@H]4C[C@H]3CO4)cc12 [Example 302, (4S)-4′-fluoro-7′-(6-fluoro-3-pyridinyl)-2′-((1S,4S)-2-oxa-5-azabicyclo[2.2.1]hept-5-yl)spiro[1,3-oxazole-4,9′-xanthen]-2-amine]
IC50 [1]: 0.0031 µM | IC50 [2]: 0.0056 µM

C[C@@H]1CN(c2cc(F)c3c(c2)[C@]2(COC(N)=N2)c2cc(-c4cccnc4F)ccc2O3)C[C@H](C)O1 [Example 303, (4S)-2′-((2R,6S)-2,6-dimethyl-4-morpholinyl)-4′-fluoro-7′-(2-fluoro-3-pyridinyl)spiro[1,3-oxazole-4,9′-xanthen]-2-amine]
IC50 [1]: 0.002 µM | IC50 [2]: 0.0067 µM

CC(C)(C)/C=C/c1cc2c(cn1)Oc1cc(F)c(-c3cncnc3)cc1[C@@]21COC(N)=N1 [Example 304, (5S)-3-((1E)-3,3-dimethyl-1-buten-1-yl)-8-fluoro-7-(5-pyrimidinyl)spiro[chromeno[2,3-c]pyridine-5,4′-[1,3]oxazol]-2′-amine]
IC50 [1]: 0.0021 µM | IC50 [2]: 0.0239 µM

CC(C)(C)C#Cc1cc2c(cn1)Oc1cc(F)c(-c3cncnc3)cc1[C@@]21COC(N)=N1 [Example 305, (5S)-3-(3,3-dimethyl-1-butyn-1-yl)-8-fluoro-7-(5-pyrimidinyl)spiro[chromeno[2,3-c]pyridine-5,4′-[1,3]oxazol]-2′-amine]
IC50 [1]: 0.0099 µM | IC50 [2]: 0.0958 µM

NC1=N[C@@]2(CO1)c1cc(-c3cccnc3F)ncc1Oc1c(F)cc(C3=CCOCC3)cc12 [Example 306, (5S)-7-(3,6-dihydro-2H-pyran-4-yl)-9-fluoro-3-(2-fluoro-3-pyridinyl)spiro[chromeno[2,3-c]pyridine-5,4′-[1,3]oxazol]-2′-amine]
IC50 [1]: 0.0015 µM | IC50 [2]: 0.0567 µM

NC1=N[C@@]2(CO1)c1cc(-c3cccnc3)ncc1Oc1c(F)cc(C3=CCOCC3)cc12 [Example 307, (5S)-7-(3,6-dihydro-2H-pyran-4-yl)-9-fluoro-3-(3-pyridinyl)spiro[chromeno[2,3-c]pyridine-5,4′-[1,3]oxazol]-2′-amine]
IC50 [1]: 0.0039 µM | IC50 [2]: 0.0581 µM

N#Cc1cccc(-c2cc3c(cn2)Oc2c(F)cc(C4=CCOCC4)cc2[C@]32COC(N)=N2)c1 [Example 308, 3-((5S)-2′-amino-7-(3,6-dihydro-2H-pyran-4-yl)-9-fluorospiro[chromeno[2,3-c]pyridine-5,4′-[1,3]oxazol]-3-yl)benzonitrile]
IC50 [1]: 0.0093 µM | IC50 [2]: 0.117 µM

CC1(COc2cc3c(cc2F)Oc2ccc(-c4cccc(Cl)c4)cc2[C@@]32COC(N)=N2)COC1 [Example 310, (4S)-7′-(3-chlorophenyl)-3′-fluoro-2′-((3-methyl-3-oxetanyl)methoxy)spiro[1,3-oxazole-4,9′-xanthen]-2-amine]
IC50 [1]: 0.0032 µM | IC50 [2]: 0.113 µM

Cn1cc(-c2cc3c(cc2F)Oc2ccc(-c4cccnc4F)cc2[C@@]32COC(N)=N2)cn1 [Example 311, (4S)-3′-fluoro-7′-(2-fluoro-3-pyridinyl)-2′-(1-methyl-1H-pyrazol-4-yl)spiro[1,3-oxazole-4,9′-xanthen]-2-amine]
IC50 [1]: 0.0039 µM | IC50 [2]: 0.0195 µM

CC1(C#Cc2cc3c(cc2F)Oc2ccc(-c4cccnc4F)cc2[C@@]32COC(N)=N2)COC1 [Example 312, (4S)-3′-fluoro-7′-(2-fluoro-3-pyridinyl)-2′-((3-methyl-3-oxetanyl)ethynyl)spiro[1,3-oxazole-4,9′-xanthen]-2-amine]
IC50 [1]: 0.0025 µM | IC50 [2]: 0.0303 µM

Cn1cc(-c2cc3c(cc2F)Oc2ccc(-c4cccc(Cl)c4)cc2[C@@]32COC(N)=N2)cn1 [Example 313, (4S)-7′-(3-chlorophenyl)-3′-fluoro-2′-(1-methyl-1H-pyrazol-4-yl)spiro[1,3-oxazole-4,9′-xanthen]-2-amine]
IC50 [1]: 0.0018 µM | IC50 [2]: 0.0789 µM

COC(C)(C)COc1cnc2c(c1)[C@@]1(COC(N)=N1)c1cc(-c3cccc(F)c3F)ccc1O2 [Example 314, (5R)-7-(2,3-difluorophenyl)-3-(2-methoxy-2-methylpropoxy)spiro[chromeno[2,3-b]pyridine-5,4′-[1,3]oxazol]-2′-amine]
IC50 [1]: 1.92 µM | IC50 [2]: 3.66 µM

COC(C)(C)COc1cnc2c(c1)[C@]1(COC(N)=N1)c1cc(-c3cccc(F)c3F)ccc1O2 [Example 315, (5S)-7-(2,3-difluorophenyl)-3-(2-methoxy-2-methylpropoxy)spiro[chromeno[2,3-b]pyridine-5,4′-[1,3]oxazol]-2′-amine]
IC50 [1]: 0.0052 µM | IC50 [2]: 0.0317 µM

COC(C)(C)COc1cnc2c(c1)[C@@]1(COC(N)=N1)c1cc(-c3cccc(C(F)(F)F)c3)ccc1O2 [Example 316, (5R)-3-(2-methoxy-2-methylpropoxy)-7-(3-(trifluoromethyl)phenyl)spiro[chromeno[2,3-b]pyridine-5,4′-[1,3]oxazol]-2′-amine]
IC50 [1]: 0.393 µM | IC50 [2]: 2.1 µM

COC(C)(C)COc1cnc2c(c1)[C@]1(COC(N)=N1)c1cc(-c3cccc(C(F)(F)F)c3)ccc1O2 [Example 317, (5S)-3-(2-methoxy-2-methylpropoxy)-7-(3-(trifluoromethyl)phenyl)spiro[chromeno[2,3-b]pyridine-5,4′-[1,3]oxazol]-2′-amine]
IC50 [1]: 0.0025 µM | IC50 [2]: 0.0239 µM

COC(C)(C)COc1cnc2c(c1)[C@@]1(COC(N)=N1)c1cc(-c3cc(Cl)ccc3F)ccc1O2 [Example 318, (5R)-7-(5-chloro-2-fluorophenyl)-3-(2-methoxy-2-methylpropoxy)spiro[chromeno[2,3-b]pyridine-5,4′-[1,3]oxazol]-2′-amine]
IC50 [1]: 0.367 µM | IC50 [2]: 1.81 µM

COC(C)(C)COc1cnc2c(c1)[C@]1(COC(N)=N1)c1cc(-c3cc(Cl)ccc3F)ccc1O2 [Example 319, (5S)-7-(5-chloro-2-fluorophenyl)-3-(2-methoxy-2-methylpropoxy)spiro[chromeno[2,3-b]pyridine-5,4′-[1,3]oxazol]-2′-amine]
IC50 [1]: 0.0007 µM | IC50 [2]: 0.0053 µM

NC1=N[C@@]2(CO1)c1cc(-c3cccnc3F)ccc1Oc1cc(F)c(C3=CCOCC3)cc12 [Example 320, (4S)-2′-(3,6-dihydro-2H-pyran-4-yl)-3′-fluoro-7′-(2-fluoro-3-pyridinyl)spiro[1,3-oxazole-4,9′-xanthen]-2-amine]
IC50 [1]: 0.0066 µM | IC50 [2]: 0.06 µM

NC1=N[C@@]2(CO1)c1cc(-c3cccnc3F)ccc1Oc1cc(F)c(-c3ccncc3)cc12 [Example 321, (4S)-3′-fluoro-7′-(2-fluoro-3-pyridinyl)-2′-(4-pyridinyl)spiro[1,3-oxazole-4,9′-xanthen]-2-amine]
IC50 [1]: 0.0203 µM | IC50 [2]: 0.0615 µM

COc1cccc(-c2ccc3c(c2)[C@@]2(COC(N)=N2)c2cc(C4=CCOCC4)cnc2O3)c1 [Example 322, (5S)-3-(3,6-dihydro-2H-pyran-4-yl)-7-(3-methoxyphenyl)spiro[chromeno[2,3-b]pyridine-5,4′-[1,3]oxazol]-2′-amine]
IC50 [1]: 0.0036 µM | IC50 [2]: 0.0261 µM

COc1ccc(F)c(-c2ccc3c(c2)[C@@]2(COC(N)=N2)c2cc(C4=CCOCC4)cnc2O3)c1 [Example 323, (5S)-3-(3,6-dihydro-2H-pyran-4-yl)-7-(2-fluoro-5-methoxyphenyl)spiro[chromeno[2,3-b]pyridine-5,4′-[1,3]oxazol]-2′-amine]
IC50 [1]: 0.0014 µM | IC50 [2]: 0.0155 µM

Cc1ccc(-c2ccc3c(c2)[C@@]2(COC(N)=N2)c2cc(C4=CCOCC4)cnc2O3)o1 [Example 324, (5S)-3-(3,6-dihydro-2H-pyran-4-yl)-7-(5-methyl-2-furanyl)spiro[chromeno[2,3-b]pyridine-5,4′-[1,3]oxazol]-2′-amine]
IC50 [1]: 0.042 µM | IC50 [2]: 0.158 µM

CC1(COc2cc3c(cc2F)Oc2ccc(-c4ccnc(Cl)c4)cc2[C@@]32COC(N)=N2)COC1 [Example 325, (4S)-7′-(2-chloro-4-pyridinyl)-3′-fluoro-2′-((3-methyl-3-oxetanyl)methoxy)spiro[1,3-oxazole-4,9′-xanthen]-2-amine]
IC50 [1]: 0.0502 µM | IC50 [2]: 0.255 µM

CC1(COc2cc3c(cc2F)Oc2ccc(-c4ccc(F)nc4)cc2[C@@]32COC(N)=N2)COC1 [Example 326, (4S)-3′-fluoro-7′-(6-fluoro-3-pyridinyl)-2′-((3-methyl-3-oxetanyl)methoxy)spiro[1,3-oxazole-4,9′-xanthen]-2-amine]
IC50 [1]: 0.0197 µM | IC50 [2]: 0.0616 µM

CC1(COc2cc3c(cc2F)Oc2ccc(-c4cncc(F)c4)cc2[C@@]32COC(N)=N2)COC1 [Example 327, (4S)-3′-fluoro-7′-(5-fluoro-3-pyridinyl)-2′-((3-methyl-3-oxetanyl)methoxy)spiro[1,3-oxazole-4,9′-xanthen]-2-amine]
IC50 [1]: 0.0041 µM | IC50 [2]: 0.0215 µM

Source: patent publication US8883782B2, “Spiro-tetracyclic ring compounds as beta-secretase modulators and methods of use” (Amgen Inc., priority 2010, dated 2014)
